Twelve molecules from ChEMBL document CHEMBL5465560, “Selectivity Literature for EUbOPEN Chemogenomic Library” (2024) can be followed below.

In one assay the target is SRSF protein kinase 1 (Homo sapiens, UniProt Q96SB4). Put plainly: Selectivity interaction (Kinase panel (Z-LYTE Assay)) EUB0001632a SRPK1. Particulars: at 10 µM.
In assay [1] the target is Tyrosine-protein kinase JAK2 (Homo sapiens, UniProt O60674). Description: Selectivity interaction (Kinase panel (Carna Biosciences)) EUB0001542aTs JAK2. Particulars: at 1 µM.
Assay [2] deals with AP2-associated protein kinase 1 (Homo sapiens, UniProt Q2M2I8). Put plainly: Selectivity interaction (Ambit KINOMEscan and KiNATiv profiling in Jurkat cells) EUB0000090b AAK1. The assay is classed as cell-based. Particulars: at 1 µM.
Chain of AP2-associated protein kinase 1 (Q2M2I8 whole entry, looked up): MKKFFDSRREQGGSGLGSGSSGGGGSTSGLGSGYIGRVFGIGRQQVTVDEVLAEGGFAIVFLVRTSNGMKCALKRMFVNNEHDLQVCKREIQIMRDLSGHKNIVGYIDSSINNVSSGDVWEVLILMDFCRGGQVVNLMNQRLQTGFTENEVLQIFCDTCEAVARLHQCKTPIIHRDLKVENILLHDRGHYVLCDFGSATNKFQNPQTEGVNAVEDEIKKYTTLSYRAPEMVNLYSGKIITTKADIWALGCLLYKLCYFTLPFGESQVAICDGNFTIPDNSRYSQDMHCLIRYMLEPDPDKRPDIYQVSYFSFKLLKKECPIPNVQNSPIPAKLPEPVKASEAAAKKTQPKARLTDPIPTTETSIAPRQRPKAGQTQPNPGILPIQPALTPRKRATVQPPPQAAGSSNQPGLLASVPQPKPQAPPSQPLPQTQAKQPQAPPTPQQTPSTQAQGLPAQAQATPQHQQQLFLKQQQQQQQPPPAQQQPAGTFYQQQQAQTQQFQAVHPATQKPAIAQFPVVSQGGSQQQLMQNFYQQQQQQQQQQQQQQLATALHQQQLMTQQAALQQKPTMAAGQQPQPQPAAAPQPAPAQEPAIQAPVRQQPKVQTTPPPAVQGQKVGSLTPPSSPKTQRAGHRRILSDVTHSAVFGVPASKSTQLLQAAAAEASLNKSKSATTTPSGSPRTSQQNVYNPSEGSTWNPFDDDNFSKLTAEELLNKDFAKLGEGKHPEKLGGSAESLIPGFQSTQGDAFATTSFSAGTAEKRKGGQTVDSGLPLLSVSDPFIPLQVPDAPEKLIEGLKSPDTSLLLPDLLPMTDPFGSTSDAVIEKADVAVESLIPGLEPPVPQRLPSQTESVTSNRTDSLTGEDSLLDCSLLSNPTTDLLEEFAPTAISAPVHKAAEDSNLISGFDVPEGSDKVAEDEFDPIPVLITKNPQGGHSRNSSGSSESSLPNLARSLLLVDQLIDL
For assay [3], the target named is Ribosomal protein S6 kinase alpha-5 (Homo sapiens) (UniProt O75582). Put plainly: Selectivity interaction (Ambit KINOMEscan and KiNATiv profiling in Jurkat cells) EUB0000090b RPS6KA5. The format is cell-based. As to conditions: at 1 µM.
In another assay the target is Ephrin type-A receptor 4 (Homo sapiens, UniProt P54764). Put plainly: Selectivity interaction (SelectScreen profiling (Invitrogen)) EUB0000607a EPHA4. Particulars: at 2 µM.
Assay [4] addresses Serine/threonine-protein kinase 32B (Homo sapiens) (UniProt Q9NY57). Put plainly: Selectivity interaction (KinomeScan (DiscoverX)) EUB0000655a STK32B. As to conditions: at 10 µM.
Assay [5] concerns the target Serine/threonine-protein kinase 26 (Homo sapiens, UniProt Q9P289). Particulars: PBMC, at 1 µM.
Assay [6] addresses Maternal embryonic leucine zipper kinase (Homo sapiens) (UniProt Q14680). Put plainly: Selectivity interaction (KinomeScan (DiscoverX)) EUB0001049a MELK. As to conditions: at 1 µM.
Assay [7] deals with Mitogen-activated protein kinase 11 (Homo sapiens) (UniProt Q15759). Description: Selectivity interaction (KinomeScan (DiscoverX)) EUB0000695a MAPK11. Particulars: at 100 nM.
Chain of Mitogen-activated protein kinase 11 (Homo sapiens) (Q15759 whole entry): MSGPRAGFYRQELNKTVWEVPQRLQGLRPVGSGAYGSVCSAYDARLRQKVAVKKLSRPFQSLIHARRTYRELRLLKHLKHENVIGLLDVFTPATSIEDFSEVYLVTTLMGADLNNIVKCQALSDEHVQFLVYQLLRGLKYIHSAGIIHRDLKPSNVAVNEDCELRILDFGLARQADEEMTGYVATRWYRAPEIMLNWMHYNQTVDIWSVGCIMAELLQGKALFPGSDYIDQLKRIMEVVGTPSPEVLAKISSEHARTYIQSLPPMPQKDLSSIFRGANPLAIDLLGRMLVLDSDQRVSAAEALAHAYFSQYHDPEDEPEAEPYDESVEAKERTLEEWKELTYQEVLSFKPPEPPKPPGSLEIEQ
Assay [8] deals with ALK tyrosine kinase receptor (Homo sapiens), Q9UM73 [F1174S]. Put plainly: (§1) Selectivity interaction (ProQinase) EUB0000171b ALK.
Chain of ALK tyrosine kinase receptor (Homo sapiens), Q9UM73 [F1174S] (Q9UM73 whole entry F1174S): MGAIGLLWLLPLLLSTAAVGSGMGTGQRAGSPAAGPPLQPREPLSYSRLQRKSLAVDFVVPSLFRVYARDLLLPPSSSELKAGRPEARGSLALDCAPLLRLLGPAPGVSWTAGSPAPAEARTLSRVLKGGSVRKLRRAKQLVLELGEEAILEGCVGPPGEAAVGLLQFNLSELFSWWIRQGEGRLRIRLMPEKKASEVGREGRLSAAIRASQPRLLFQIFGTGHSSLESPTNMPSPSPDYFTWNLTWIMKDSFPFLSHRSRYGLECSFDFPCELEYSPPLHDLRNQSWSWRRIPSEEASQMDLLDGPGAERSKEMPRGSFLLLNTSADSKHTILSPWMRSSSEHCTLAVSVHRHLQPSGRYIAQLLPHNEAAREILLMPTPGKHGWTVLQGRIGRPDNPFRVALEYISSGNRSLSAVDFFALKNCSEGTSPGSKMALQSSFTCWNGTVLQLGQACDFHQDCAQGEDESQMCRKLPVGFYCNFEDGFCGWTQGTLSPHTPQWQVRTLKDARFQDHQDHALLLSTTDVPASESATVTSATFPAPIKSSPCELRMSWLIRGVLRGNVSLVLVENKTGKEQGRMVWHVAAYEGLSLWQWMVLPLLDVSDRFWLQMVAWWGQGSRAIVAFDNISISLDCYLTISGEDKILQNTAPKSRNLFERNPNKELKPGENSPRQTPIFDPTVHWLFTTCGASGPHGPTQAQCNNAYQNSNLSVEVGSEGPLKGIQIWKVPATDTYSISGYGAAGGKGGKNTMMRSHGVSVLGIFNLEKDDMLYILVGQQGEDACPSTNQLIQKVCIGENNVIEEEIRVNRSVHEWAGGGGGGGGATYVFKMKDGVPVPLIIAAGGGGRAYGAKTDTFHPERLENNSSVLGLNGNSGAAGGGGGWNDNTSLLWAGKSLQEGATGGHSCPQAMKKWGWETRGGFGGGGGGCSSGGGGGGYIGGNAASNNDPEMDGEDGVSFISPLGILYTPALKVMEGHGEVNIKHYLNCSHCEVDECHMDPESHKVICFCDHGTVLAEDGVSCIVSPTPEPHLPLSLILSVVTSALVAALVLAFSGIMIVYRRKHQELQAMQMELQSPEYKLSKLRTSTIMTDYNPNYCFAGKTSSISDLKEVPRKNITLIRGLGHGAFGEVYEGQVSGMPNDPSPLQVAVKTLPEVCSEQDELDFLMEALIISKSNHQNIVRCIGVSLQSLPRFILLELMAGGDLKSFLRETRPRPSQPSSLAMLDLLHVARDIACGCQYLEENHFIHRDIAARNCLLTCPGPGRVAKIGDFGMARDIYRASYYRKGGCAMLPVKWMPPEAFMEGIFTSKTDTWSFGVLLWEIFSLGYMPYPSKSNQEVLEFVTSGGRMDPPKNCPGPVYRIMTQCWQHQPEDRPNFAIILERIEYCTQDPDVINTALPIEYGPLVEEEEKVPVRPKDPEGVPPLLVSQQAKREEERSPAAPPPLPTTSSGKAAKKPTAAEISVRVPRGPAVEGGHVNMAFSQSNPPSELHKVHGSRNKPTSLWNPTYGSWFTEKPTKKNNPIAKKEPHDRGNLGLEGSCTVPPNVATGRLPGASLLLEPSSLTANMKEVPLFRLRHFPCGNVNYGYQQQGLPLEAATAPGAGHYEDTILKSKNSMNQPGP
Assay [9] deals with ALK tyrosine kinase receptor (Homo sapiens, UniProt Q9UM73). The assay is described as §1.
Chain of ALK tyrosine kinase receptor (Q9UM73 19-1620 limits assumed): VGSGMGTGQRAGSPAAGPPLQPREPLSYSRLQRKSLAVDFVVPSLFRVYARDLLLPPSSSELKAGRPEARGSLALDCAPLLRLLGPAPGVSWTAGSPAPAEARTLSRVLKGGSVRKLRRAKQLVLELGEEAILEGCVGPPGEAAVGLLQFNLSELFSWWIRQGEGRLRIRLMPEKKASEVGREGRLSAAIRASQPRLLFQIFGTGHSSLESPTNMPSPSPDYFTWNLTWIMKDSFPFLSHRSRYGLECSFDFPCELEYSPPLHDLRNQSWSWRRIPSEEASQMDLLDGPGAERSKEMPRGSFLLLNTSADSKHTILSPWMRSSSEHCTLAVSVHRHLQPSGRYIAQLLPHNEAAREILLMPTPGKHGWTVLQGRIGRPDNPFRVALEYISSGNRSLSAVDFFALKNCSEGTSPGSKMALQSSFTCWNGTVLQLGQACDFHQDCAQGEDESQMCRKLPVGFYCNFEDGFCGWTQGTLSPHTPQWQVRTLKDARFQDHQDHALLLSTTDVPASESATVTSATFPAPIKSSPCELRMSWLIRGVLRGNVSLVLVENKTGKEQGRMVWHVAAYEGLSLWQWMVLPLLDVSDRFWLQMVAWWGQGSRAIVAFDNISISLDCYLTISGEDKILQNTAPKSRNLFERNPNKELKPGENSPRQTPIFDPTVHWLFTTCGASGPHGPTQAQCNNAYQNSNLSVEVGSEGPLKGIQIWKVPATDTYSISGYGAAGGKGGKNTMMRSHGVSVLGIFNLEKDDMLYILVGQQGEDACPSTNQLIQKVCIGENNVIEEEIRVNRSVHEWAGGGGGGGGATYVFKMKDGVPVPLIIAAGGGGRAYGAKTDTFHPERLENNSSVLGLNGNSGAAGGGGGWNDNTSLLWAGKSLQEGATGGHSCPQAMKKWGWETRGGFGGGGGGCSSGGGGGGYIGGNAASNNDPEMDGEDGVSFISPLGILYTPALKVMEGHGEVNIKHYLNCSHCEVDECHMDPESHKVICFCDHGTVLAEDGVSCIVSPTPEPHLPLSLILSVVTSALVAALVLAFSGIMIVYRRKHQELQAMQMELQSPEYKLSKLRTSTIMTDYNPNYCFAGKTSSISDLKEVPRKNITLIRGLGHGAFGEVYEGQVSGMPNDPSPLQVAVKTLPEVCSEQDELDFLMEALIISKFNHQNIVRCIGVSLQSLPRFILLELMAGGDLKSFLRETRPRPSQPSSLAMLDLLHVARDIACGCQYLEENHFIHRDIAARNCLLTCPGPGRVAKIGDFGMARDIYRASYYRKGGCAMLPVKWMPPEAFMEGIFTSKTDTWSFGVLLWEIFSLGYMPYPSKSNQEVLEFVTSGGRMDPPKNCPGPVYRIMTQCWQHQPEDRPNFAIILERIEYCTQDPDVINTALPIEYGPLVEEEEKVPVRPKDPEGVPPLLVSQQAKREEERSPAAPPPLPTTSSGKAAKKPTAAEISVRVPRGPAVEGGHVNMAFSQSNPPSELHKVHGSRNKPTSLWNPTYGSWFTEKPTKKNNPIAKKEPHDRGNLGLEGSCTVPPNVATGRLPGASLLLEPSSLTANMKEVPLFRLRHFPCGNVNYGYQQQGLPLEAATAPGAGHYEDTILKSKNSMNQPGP
The test system of assay [10] is ALK tyrosine kinase receptor (Homo sapiens), Q9UM73 [R1275Q]. The assay is described as §1.
Chain of ALK tyrosine kinase receptor (Homo sapiens), Q9UM73 [R1275Q] (Q9UM73 whole entry R1275Q): as the sequence (Q9UM73 whole entry F1174S) above, with S1174F, R1275Q counted along it
Assay [11] deals with ALK tyrosine kinase receptor (Homo sapiens), Q9UM73 [F1174L]. The description is as §1.
Chain of ALK tyrosine kinase receptor (Homo sapiens), Q9UM73 [F1174L] (Q9UM73 whole entry F1174L): as the sequence (Q9UM73 whole entry F1174S) above, with S1174L counted along it
Assay [12] relates to ALK tyrosine kinase receptor (Homo sapiens), Q9UM73 [L1196M]. The description is as §1.
Chain of ALK tyrosine kinase receptor (Homo sapiens), Q9UM73 [L1196M] (Q9UM73 whole entry L1196M, looked up): as the sequence (Q9UM73 whole entry F1174S) above, with S1174F, L1196M counted along it
Assay [13] relates to ALK tyrosine kinase receptor (Homo sapiens), Q9UM73 [C1156Y]. The description is as §1.
Chain of ALK tyrosine kinase receptor (Homo sapiens), Q9UM73 [C1156Y] (Q9UM73 whole entry C1156Y, looked up): as the sequence (Q9UM73 whole entry F1174S) above, with C1156Y, S1174F counted along it
Assay [14] has as its target T1, cGMP-dependent protein kinase 2 (Homo sapiens) (UniProt Q13237).
T1 sequence (whole entry): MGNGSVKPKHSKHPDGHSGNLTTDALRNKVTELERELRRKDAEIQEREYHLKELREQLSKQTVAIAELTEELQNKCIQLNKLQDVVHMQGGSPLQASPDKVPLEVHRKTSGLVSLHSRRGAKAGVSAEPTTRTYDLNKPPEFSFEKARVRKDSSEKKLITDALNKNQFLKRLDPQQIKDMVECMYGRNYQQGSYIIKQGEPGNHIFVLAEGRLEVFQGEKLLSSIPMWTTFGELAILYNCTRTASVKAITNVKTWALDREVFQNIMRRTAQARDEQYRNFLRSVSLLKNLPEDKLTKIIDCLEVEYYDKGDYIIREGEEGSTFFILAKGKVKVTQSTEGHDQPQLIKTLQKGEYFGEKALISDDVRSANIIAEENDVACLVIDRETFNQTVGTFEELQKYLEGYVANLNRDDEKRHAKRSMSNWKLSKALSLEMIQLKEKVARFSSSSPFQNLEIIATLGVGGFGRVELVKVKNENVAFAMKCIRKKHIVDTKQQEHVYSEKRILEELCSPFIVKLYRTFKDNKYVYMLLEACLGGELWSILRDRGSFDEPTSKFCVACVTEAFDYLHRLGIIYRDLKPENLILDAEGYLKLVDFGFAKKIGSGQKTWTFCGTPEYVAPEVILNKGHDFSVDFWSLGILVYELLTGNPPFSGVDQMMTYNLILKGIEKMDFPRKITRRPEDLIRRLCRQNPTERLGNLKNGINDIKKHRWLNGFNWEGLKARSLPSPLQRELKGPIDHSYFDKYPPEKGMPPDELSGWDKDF
Put plainly: Selectivity interaction (KinomeScan (DiscoverX)) EUB0000092b PRKG2. As to conditions: at 10 µM.

Assay [15] concerns the target T2, Tyrosine-protein kinase ITK/TSK (Homo sapiens) (UniProt Q08881).
T2 sequence (whole entry): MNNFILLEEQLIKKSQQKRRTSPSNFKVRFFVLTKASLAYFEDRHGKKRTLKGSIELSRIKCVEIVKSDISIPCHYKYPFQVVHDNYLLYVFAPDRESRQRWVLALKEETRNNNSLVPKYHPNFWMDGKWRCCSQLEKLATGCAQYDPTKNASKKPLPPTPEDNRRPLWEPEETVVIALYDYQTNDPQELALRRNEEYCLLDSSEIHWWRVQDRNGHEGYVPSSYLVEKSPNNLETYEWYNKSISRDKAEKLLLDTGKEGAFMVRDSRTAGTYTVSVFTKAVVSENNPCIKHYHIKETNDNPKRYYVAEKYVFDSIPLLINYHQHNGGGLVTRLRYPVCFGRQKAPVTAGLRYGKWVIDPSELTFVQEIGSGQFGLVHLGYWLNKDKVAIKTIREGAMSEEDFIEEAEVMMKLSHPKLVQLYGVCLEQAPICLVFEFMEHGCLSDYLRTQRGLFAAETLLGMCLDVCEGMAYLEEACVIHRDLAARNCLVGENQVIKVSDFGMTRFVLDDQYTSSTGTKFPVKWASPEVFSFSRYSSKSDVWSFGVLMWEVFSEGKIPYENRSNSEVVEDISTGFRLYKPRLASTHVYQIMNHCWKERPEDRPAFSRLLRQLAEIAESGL
Description: Selectivity interaction (KinomeScan (DiscoverX)) EUB0000045b ITK.

In assay [16] the target is T3, Phosphatidylinositol 5-phosphate 4-kinase type-2 gamma (Homo sapiens) (UniProt Q8TBX8).
T3 sequence (whole entry): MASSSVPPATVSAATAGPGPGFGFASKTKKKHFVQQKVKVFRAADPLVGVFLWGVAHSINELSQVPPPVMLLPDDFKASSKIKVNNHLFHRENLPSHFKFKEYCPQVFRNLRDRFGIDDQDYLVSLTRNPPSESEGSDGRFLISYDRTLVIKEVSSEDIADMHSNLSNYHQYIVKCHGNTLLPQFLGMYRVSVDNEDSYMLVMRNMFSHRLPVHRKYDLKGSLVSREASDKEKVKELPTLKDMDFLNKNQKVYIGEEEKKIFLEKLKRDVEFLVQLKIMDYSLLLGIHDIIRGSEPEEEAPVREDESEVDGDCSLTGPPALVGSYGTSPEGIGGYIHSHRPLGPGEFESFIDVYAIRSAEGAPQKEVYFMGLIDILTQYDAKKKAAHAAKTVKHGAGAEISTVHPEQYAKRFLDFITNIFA
Description: Selectivity interaction (KinomeScan (DiscoverX)) EUB0000618a PIP4K2C. Particulars: at 10 µM.

In the case of `Cn1cc(-n2cnc3c(NCc4nc5cc(Cl)c(Cl)cc5[nH]4)nc(N4CCOCC4)nc32)cn1`, the % of control on SRSF protein kinase 1 turned out to be 0.97%.
Consider `Cn1cc(Nc2nccc(N3CC4CCC(C3)N4C(=O)[C@@H]3CC3(F)F)n2)cn1`, for which the % of inhibition in [1] was found to be 94%.
As to `CN(C)C/C=C/C(=O)Nc1ccc(C(=O)N2CCCC(Nc3ncc(Cl)c(-c4c[nH]c5ccccc45)n3)C2)cc1` (stereo not given), the % of control in assay [2] was found to be 89%; in assay [3] it was 86%.
As to `CNC(=O)Nc1ccc(-c2nc(N3CC4CCC(C3)O4)c3cnn(C4CCC5(CC4)OCCO5)c3n2)cc1`, the % of inhibition at Ephrin type-A receptor 4 was -1%.
As for `CN(C)CCOc1ccc(-c2nc(-c3ccncc3)c(-c3ccc4c(c3)CC/C4=N\O)[nH]2)cc1`, in assay [4], the % of control stood at 85%.
As for `N#Cc1cccc(-c2c[nH]c3ncnc(N4CCOCC4)c23)c1`, the % of inhibition in assay [5] amounted to 39%.
Consider `COc1cc(Nc2nc(C)cc(-c3cnn4nc(OC)ccc34)n2)cc(C(F)(F)F)c1`, for which the % of control in assay [6] was determined as 97%.
The molecule `Cc1cc(F)c(C(=O)Nc2cccc(-c3nncn3C(C)C)n2)cc1-n1cnc(C2CC2)c1` displayed a % of control in assay [7] of 100%.
Turning to `C=CC(=O)Nc1cccc(C(=O)Nc2ccc(Nc3cc(-c4[nH]c(SC)nc4C)ccn3)cc2)c1`, the % of control worked out at 92% in [8] (at 1 µM); 72% in assay [8] (at 5 µM); 98% in assay [9] (at 1 µM); 72% in assay [9] (at 5 µM); 85% in assay [10] (at 1 µM); 73% in [10] (at 5 µM). Besides, the % of control in assay [11] (at 1 µM) came out at 84%; in [11] (at 5 µM), 74%; in [12] (at 1 µM), 72%; in assay [12] (at 5 µM) it was 55%; in [13] (at 1 µM) it was 86%; in [13] (at 5 µM), 69%.
`CCC(=O)N1CCN(c2ccc(-n3c(=O)ccc4cnc5ccc(-c6cnc7ccccc7c6)cc5c43)cc2C(F)(F)F)CC1` came in with a % of control in assay [14] of 78%.
Turning to `C=CC(=O)Nc1cc(-n2c(=O)ccc3cnc4ccc(-c5ccc(NS(C)(=O)=O)cc5)cc4c32)ccc1C`, the % of control in assay [15] (at 1 µM) was 52%; in [15] (at 10 µM), 43%.
The molecule `O[C@H]1CC[C@H](Nc2ncc3nc(Nc4c(F)cc(F)cc4F)n([C@H]4CCOC4)c3n2)CC1` had a % of control in assay [16] of 32%.
